Read-outs that look alike come from different tables or passages of the source.
Experiments:
[1] = system: vascular restenosis after the operation of PTCA; conditions: random multifacility clinical study, Circulation 1992; cited from earlier work
Human cardiac chymase = target: T1, Human cardiac chymase (Homo sapiens, UniProt P23946); test: Inhibitory activity against chymase (Ang I to Ang II conversion, HPLC); type: biochemical
T1 construct: Human cardiac chymase was purified according to the process of Urata et al; from tissue; host or cells: human heart (cardiac)
T1 sequence (P23946 22-247): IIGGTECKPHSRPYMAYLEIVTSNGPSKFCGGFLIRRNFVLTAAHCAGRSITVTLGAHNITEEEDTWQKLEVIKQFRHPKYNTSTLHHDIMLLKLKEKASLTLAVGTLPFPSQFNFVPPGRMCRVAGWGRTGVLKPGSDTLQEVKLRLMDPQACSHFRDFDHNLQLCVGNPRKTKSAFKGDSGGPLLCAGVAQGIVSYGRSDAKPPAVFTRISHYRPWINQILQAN
Protocol: Human cardiac chymase was purified according to the process of Urata et al. (see the literature described above), and the inhibitory activities of the hydantoin compounds according to the present invention against the chymase were determined in the following manner. Namely, 10 μl of the purified chymase and 5 μl of a solution of a sample to be tested in dimethyl sulfoxide (hereinafter abbreviated as "DMSO") were added to 10 μl of a 20 mM Tris-hydrochloric acid buffer (pH 7.5) containing 2M KCl, and the resultant mixture was preincubated at 37° C. for 10 minutes and then added with 25 μl of a 1 mM solution of Ang I, followed by incubation at 37° C. for 30 minutes. Then, 50 μl of 30% acetic acid were added to stop the enzyme reaction. On the other hand, 5 μl of DMSO were added in place of the solution of the test sample to similarly conduct a reaction as a blank test.
(§1) After completion of the reaction, each liquid reaction mixture was subjected to high performance liquid chromatography on Develosil ODS-5 (product of Nomura Kagaku, 4.6 mm across×150 mm long) to develop it at a linear concentration gradient that the concentration of acetonitrile in 0.05% trifluoroacetic acid (hereinafter abbreviated as "TFA") is increased from 0% to 60% in 10 minutes at a flow rate of 2.0 ml/min. Monitoring was performed by the absorbance measurements at 210 nm. Peaks were identified by comparison with standard solutions of Ang I and Ang II. The areas of the peaks were determined by an integrator to quantitate Ang I and Ang II, thereby calculating chymase activity. The inhibitory activity against chymase was determined by calculating an inhibition rate, median inhibitory concentration (IC50) on the basis of the value in the blank test.

cathepsin G = target: T2, cathepsin G (Homo sapiens, UniProt P08311); test: Inhibitory activity against cathepsin G (Ang I to Ang II conversion, HPLC); type: biochemical
T2 construct: cathepsin G (product of Calbiochem Co.) derived from human neutrophil; purchased Calbiochem Co; host or cells: human neutrophil
T2 sequence (P08311 21-244 limits assumed): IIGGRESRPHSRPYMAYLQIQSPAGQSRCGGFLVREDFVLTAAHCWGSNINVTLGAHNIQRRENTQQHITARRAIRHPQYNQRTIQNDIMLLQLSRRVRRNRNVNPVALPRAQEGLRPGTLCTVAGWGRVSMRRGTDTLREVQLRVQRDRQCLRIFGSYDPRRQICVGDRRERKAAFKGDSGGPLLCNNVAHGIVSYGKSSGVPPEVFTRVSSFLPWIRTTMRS
Protocol: as §1
To a 20 mM Tris-hydrochloric acid buffer (pH 7.5) containing 2M KCl, were added 20 μl of a solution with cathepsin G (product of Calbiochem Co.) derived from human neutrophil dissolved at a concentration of 2 μg/ml in the same buffer, and 5 μl of a DMSO solution of a sample to be tested, and the resultant mixture was preincubated at 37° C. for 10 minutes and then added with 25 μl of a 1 mM solution of Ang I, followed by incubation at 37° C. for 30 minutes. Then, 50 μl of 30% acetic acid were added to stop the enzyme reaction. On the other hand, 5 μl of DMSO were added in place of the solution of the test sample to similarly conduct a reaction as a blank test. […] The inhibitory activity against cathepsin G was determined by calculating an inhibition rate, median inhibitory concentration (IC50) on the basis of the value in the blank test.

[2] = target: T3, bovine pancreas α-chymotrypsin (Bos taurus, UniProt P00766); test: Inhibitory activity against chymotrypsin (Ang I conversion, HPLC); type: biochemical
T3 construct: bovine pancreas α-chymotrypsin (product of Sigma Chemical Co., TypeII); purchased Sigma Chemical Co. TypeII; host or cells: bovine pancreas
Protocol: as §1
To 12 μl of a 20 mM Tris-hydrochloric acid buffer (pH 7.5) containing 2M KCl, were added 8 μl of a solution with bovine pancreas α-chymotrypsin (product of Sigma Chemical Co., TypeII) dissolved at a concentration of 8 μg/ml in a 20 mM aqueous solution of CaCl2 containing 1 mM HCl, and 5 μl of a DMSO solution of a sample to be tested, and the resultant mixture was preincubated at 37° C. for 10 minutes and then added with 25 μl of a 1 mM solution of Ang I, followed by incubation at 37° C. for 15 minutes. Then, 50 μl of 30% acetic acid were added to stop the enzyme reaction. On the other hand, 5 μl of DMSO were added in place of the solution of the test sample to similarly conduct a reaction as a blank test. After completion of the reaction, each liquid reaction mixture was treated by high performance liquid chromatography in the same manner as in Test Example 1 to quantitate Ang I and Ang II, thereby calculating chymotripsin activity. The inhibitory activity against chymotrypsin was determined by calculating an inhibition rate, median inhibitory concentration (IC50) on the basis of the value in the blank test.

[3] = cited from earlier work
chymase = conditions: literature, Okunishi et al.; cited from earlier work
in vivo = conditions: mouse, po
[4] = 37° C., pH 7.5, Ang I substrate, read-out: Inhibitory activities against enzymes (IC50), Chymase
[5] = human neutrophil cathepsin G, 37° C., pH 7.5, Ang I substrate, read-out: Inhibitory activities against enzymes (IC50), Cathepsin
[6] = bovine pancreas, 37° C., pH 7.5, Ang I substrate, read-out: Inhibitory activities against enzymes (IC50), Chymotrypsin

Row | IC50 (Human cardiac chymase; [4]) [µM] | IC50 (cathepsin G; [5]) [µM] | IC50 [2, 6] [µM] | Compound | also measured
1 | – | – | – | CCOC(=O)[C@H](CCc1ccccc1)N[C@H]1CCCN2CCC[C@@H](C(=O)O)N2C1=O [cilazapril] | prophylactic effect on vascular restenosis after PTCA versus placebo [1]: no statistically significant difference
2 | 0.047 | 0.52 | 2.4 | O=C1CN(c2ccc(Cl)c(Cl)c2)C(=O)N1S(=O)(=O)c1ccc2ccccc2c1 [Compound 75, 1-(3,4-dichlorophenyl)-3-(2-naphthylsulfonyl)imidazolidin-2,4-dione] | –
3 | – | 4.5 | 7 | Cc1ccc(S(=O)(=O)N2C(=O)CN(c3ccccc3)C2=O)cc1 [Compound 5, 1-phenyl-3-(4-toluenesulfonyl)-imidazolidin-2,4-dione] | –
4 | – | – | – | CC(C)C[C@H](NC(=O)[C@@H](NC(=O)N[C@@H](Cc1ccccc1)C(=O)O)[C@@H]1CCN=C(N)N1)C(=O)N[C@H](C=O)Cc1ccccc1 [chymostatin] | decomposition of peptide linkage in vivo [3]: easily decomposed in vivo; inhibition of the enzymatic activity of chymase, in words (chymase): inhibited by chymostatin
5 | 10 | 7 | 34 | O=C(O)COc1ccc(S(=O)(=O)N2C(=O)CN(c3ccccc3)C2=O)cc1 [Compound 40, 3-(4-carboxymethyloxybenzenesulfonyl)-1-phenyl-imidazolidin-2,4-dione] | –
6 | 0.027 | 1.9 | 8.5 | C=CCOC(=O)c1ccc(S(=O)(=O)N2C(=O)CN(c3ccc(C)c(C)c3)C2=O)cc1 [Compound 65, 3-(4-allyloxycarbonylbenzenesulfonyl)-1-(3,4-dimethylphenyl)-imidazolidin-2,4-dione] | –
7 | 0.06 | 1.7 | – | Cc1ccc(N2CC(=O)N(S(=O)(=O)c3ccc(C)c(C)c3)C2=O)cc1C [Compound 60] | inhibition at 100 µM [2]: 33.6%
8 | – | – | – | Cc1ccccc1S(=O)(=O)N1C(=O)CN(c2ccccc2)C1=O [Compound 2, 1-phenyl-3-(2-toluenesulfonyl)-imidazolidin-2,4-dione] | LD50 at 24 h (in vivo): ≥ 1000 mg/kg; selectivity ratio at 24 h (in vivo): ≥ 50
9 | – | – | – | CN1CCN(C(=O)Cc2ccc(S(=O)(=O)N3C(=O)CN(c4ccccc4)C3=O)cc2)CC1 [Compound 50, 3-(4-N-methylpiperazylcarbonyl-methylbenzenesulfonyl)-1-phenyl-imidazolidin-2,4-dione] | IC50 (Human cardiac chymase): 0.85 µM; IC50 (cathepsin G): 11 µM; IC50 [2]: 5.2 µM
10 | 0.17 | 19 | 90 | O=C1CN(c2cnc3ccccc3c2)C(=O)N1S(=O)(=O)c1ccc(Cl)cc1 [Compound 80, 3-(4-chlorobenzenesulfonyl)-1-(3-quinolyl)-imidazolidin-2,4-dione] | –
11 | 14 | 3.2 | 6.9 | O=C1CN(c2ccccc2)C(=O)N1C(=O)c1ccc(-c2ccccc2)cc1 [Compound 15, 3-(4-phenylbenzoyl)-1-phenyl-imidazolidin-2,4-dione] | –
12 | – | 8 | 3.7 | COc1cccc(S(=O)(=O)N2C(=O)CN(c3ccccc3)C2=O)c1 [Compound 20, 1-phenyl-3-(3-methoxybenzenesulfonyl)-imidazolidin-2,4-dione] | –
13 | 0.45 | 4.5 | 3.5 | C=CCOC(=O)Cc1cccc(S(=O)(=O)N2C(=O)CN(c3ccccc3)C2=O)c1 [Compound 45, 3-(3-allyloxycarbonylmethylbenzenesulfonyl)-1-phenyl-imidazolidin-2,4-dione] | –
14 | 3.7 | 0.96 | 3.5 | O=C1CN(c2ccccc2)C(=O)N1C(=O)c1ccccc1Cl [Compound 10, 3-(2-chlorobenzoyl)-1-phenyl-imidazolidin-2,4-dione] | –
15 | – | 4.8 | 39 | O=C1CN(c2ccc(Oc3ccccc3)cc2)C(=O)N1S(=O)(=O)c1ccc(Cl)cc1 [Compound 30, 3-(4-chlorobenzenesulfonyl)-1-(4-phenoxyphenyl)-imidazolidin-2,4-dione] | –
16 | – | – | 1.8 | COC(=O)c1cccc(S(=O)(=O)N2C(=O)CN(c3ccccc3)C2=O)c1 [Compound 35, 3-(3-methoxycarbonylbenzenesulfonyl)1-phenyl-imidazolidin-2,4-dione] | –
17 | – | 3.3 | 1.4 | O=C1CN(c2ccccc2)C(=O)N1S(=O)(=O)c1cccc(Oc2ccccc2)c1 [Compound 25, 3-(3-phenoxybenzenesulfonyl)-1-phenyl-imidazolidin-2,4-dione] | –
18 | 0.55 | 1.8 | 1.6 | O=C1CN(c2ccccc2)C(=O)N1S(=O)(=O)c1cccc2ccccc12 [Compound 70, 3-(1-naphthysulfonyl)-1-(phenyl)-imidazolidin-2,4-dione] | –

Row | Compound | IC50 (Human cardiac chymase; [4]) [µM] | IC50 (cathepsin G; [5]) [µM] | IC50 [2, 6] [µM] | also measured
19 | O=C1CN(c2ccc(Cl)cc2)C(=O)N1S(=O)(=O)c1ccc(Cl)cc1 [Compound 1, 3-(4-chlorobenzenesulfonyl)-1-(4-chlorophenyl)imidazolidin-2,4-dione] | 0.3 | 1.5 | 0.5 | LD50 at 24 h (in vivo): ≥ 1000 mg/kg; selectivity ratio at 24 h (in vivo): ≥ 50
20 | CC(C)(C)OC(=O)c1cccc(N2CC(=O)N(S(=O)(=O)c3ccc(Cl)cc3)C2=O)c1 [Compound 55] | 15 | 9.8 | 70 | –

Reference: patent publication US5691335A, “Imidazolidine derivative and use thereof” (Suntory Limited, priority 1994, dated 1997)
